“Also recorded” adds a separate entry of the source.
How the values were obtained:
[1] = test system: Cucurbita pepo leaf alkaline alpha-galactosidase ("LIV" enzyme); assay: Substrate kinetics of Cucurbita pepo leaf alkaline alpha-galactosidase (Gaudreault and Webb); format: biochemical; conditions: calculated for prior art "LIV" enzyme of Gaudreault and Webb
[2] = test system: Cucurbita pepo leaf alkaline alpha-galactosidase ("LIV" enzyme); conditions: Gaudreault and Webb; alkaline form; cited from earlier work
[3] = target: T1, melon (Cucumis melo) fruit alkaline alpha-galactosidase Form I (Cucumis melo, UniProt Q84NI7); assay: Inhibition of alkaline alpha-galactosidase Form I by alternative substrate (galactose release); format: biochemical, muskmelon (Cucumis melo L. cv C-8); parameters: native 84 kDa, denatured 79 kDa; assayed at pH 7.5
T1 sequence (Q84NI7 1-754): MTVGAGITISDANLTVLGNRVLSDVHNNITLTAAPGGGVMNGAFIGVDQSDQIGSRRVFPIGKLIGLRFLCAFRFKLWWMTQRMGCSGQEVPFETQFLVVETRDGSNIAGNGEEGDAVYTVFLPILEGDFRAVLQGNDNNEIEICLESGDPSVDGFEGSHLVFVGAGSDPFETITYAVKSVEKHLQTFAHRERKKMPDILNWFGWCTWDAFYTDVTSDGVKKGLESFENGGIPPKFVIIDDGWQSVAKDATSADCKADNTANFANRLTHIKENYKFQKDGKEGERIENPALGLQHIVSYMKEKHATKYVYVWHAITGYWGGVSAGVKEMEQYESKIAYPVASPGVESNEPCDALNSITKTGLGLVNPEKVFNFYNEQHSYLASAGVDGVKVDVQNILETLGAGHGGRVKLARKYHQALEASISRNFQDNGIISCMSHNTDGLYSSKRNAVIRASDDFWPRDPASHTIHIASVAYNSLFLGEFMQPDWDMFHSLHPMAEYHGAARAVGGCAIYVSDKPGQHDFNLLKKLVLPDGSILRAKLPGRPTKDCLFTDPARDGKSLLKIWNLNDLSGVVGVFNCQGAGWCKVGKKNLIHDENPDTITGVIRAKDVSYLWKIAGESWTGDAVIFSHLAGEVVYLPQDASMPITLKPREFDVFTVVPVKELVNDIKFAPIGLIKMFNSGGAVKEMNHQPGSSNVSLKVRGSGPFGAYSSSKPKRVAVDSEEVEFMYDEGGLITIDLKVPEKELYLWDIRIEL
Protocol: (§1) For routine analysis and monitoring the activity in the purification steps, alpha-galactosidase was assayed as described by Smart and Pharr (“Characterization of alpha-galactosidase from cucumber leaves”, Plant Physiology, 66:731-734, 1980), using p-nitrophenyl alpha-galactoside (pNPG) as substrate. Reaction was initiated by adding 50 μl enzyme aliquot to either 200 μl 100 mM pH 5.5 McIlvaine buffer or 100 mM pH 7.5 HEPES buffer, containing 5 mM pNPG at 35 C. The reaction was terminated after 10 min by adding 1 ml of 5% (w/v) Na2CO3 and activity expressed as nmol nitrophenol per min as measured at 410 nm. […] The assay was started by adding 50 μl enzyme preparation at 35 C and terminated after 10 to 20 min by 2 min boiling.

[4] = target: T2, melon (Cucumis melo) fruit alkaline alpha-galactosidase Form II (Cucumis melo, UniProt Q84NI6); assay: Substrate kinetics (Lineweaver-Burk) of alkaline alpha-galactosidase Form II; format: biochemical, muskmelon (Cucumis melo L. cv C-8)
T2 construct: native 102 kDa, denatured 92 kDa; assayed at pH 7.5
T2 sequence (Q84NI6 1-772): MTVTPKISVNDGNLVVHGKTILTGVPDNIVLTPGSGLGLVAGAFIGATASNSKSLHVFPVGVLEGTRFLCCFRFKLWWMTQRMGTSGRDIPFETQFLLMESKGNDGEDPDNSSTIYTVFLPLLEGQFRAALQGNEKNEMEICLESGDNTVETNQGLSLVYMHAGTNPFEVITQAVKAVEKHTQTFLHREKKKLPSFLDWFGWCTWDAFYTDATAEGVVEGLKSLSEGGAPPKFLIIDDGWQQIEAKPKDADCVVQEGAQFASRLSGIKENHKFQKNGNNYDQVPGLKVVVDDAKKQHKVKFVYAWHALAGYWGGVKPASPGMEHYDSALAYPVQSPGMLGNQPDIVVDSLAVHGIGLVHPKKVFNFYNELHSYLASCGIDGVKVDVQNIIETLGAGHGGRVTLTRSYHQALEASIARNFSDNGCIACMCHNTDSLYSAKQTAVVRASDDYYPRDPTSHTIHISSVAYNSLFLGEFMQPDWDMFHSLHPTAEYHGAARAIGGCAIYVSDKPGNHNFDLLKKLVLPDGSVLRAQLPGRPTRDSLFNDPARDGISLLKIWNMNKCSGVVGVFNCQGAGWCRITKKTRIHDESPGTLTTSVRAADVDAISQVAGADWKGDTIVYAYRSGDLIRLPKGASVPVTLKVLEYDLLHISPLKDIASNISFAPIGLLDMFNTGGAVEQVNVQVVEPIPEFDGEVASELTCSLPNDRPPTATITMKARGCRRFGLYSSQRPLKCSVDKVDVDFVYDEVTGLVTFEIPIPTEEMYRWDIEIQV
Protocol: as §1
The fractions from the DEAE-Sepharose chromatography which were active at pH 7.5 were pooled and dialyzed against buffer A for 12 h prior to loading onto an HPLC ion exchange chromatography column (Mono-Q HR 5/5, Pharmacia, Uppsala, Sweden), previously equilibrated with buffer A. Bound proteins were eluted with a linear gradient of 0.1 to 0.45 M NaCl and the active fractions were detected using pNPG as substrate at pH 7.5 as described above. […] For the further purification of Form II the active fractions of the peak II were chromatographed on hydrophobic interaction chromatography. The fractions were pooled, brought to 1 M (NH4)2SO4 and loaded on to a hydrophobic interaction column (phenyl-Sepharose CL-4B, 0.5×12 cm, Pharmacia, Uppsala, Sweden) previously equilibrated with buffer A containing 1 M (NH4)2SO4. The protein was eluted with a reverse stepwise gradient from 1 to 0 M (NH4)2SO4 with 50 mM intervals in buffer A. Fractions containing the activity peak were collected and dialyzed for 12 h against buffer A and the dialysate was concentrated by reverse dialysis against solid sucrose. The enzyme, partially purified by hydrophobic interaction chromatography, was used for the characterization of Form II. The active fractions from the hydrophobic interaction column were further purified. Active fractions were separated electrophoretically using a Mini Prep Cell (Bio-Rad Laboratories, Hercules, Calif.) for discontinuous native-PAGE with 7% polyacrylamide, according to manufacturer's instructions. Fractions (0.25 ml/fraction) were assayed at pH 7.5 with pNPG as substrate for the activity. The active fractions were pooled, concentrated by Vivaspin Concentrator (Vivascience LTD, Lincoln, England), and run in a 8% SDS-PAGE. Proteins in the SDS-PAGE were identified using Coomassie Blue staining.

Vmax/Km ratio [1]: 0.65
Vmax/Km ratio [4]: 0.61
Vmax ([4]; Lineweaver-Burk): 2.2 μmol mg^−1 protein min^−1
Compound: OC[C@H]1O[C@H](OC[C@H]2O[C@H](OC[C@H]3O[C@H](O[C@]4(CO)O[C@H](CO)[C@@H](O)[C@@H]4O)[C@H](O)[C@@H](O)[C@@H]3O)[C@H](O)[C@@H](O)[C@H]2O)[C@H](O)[C@@H](O)[C@H]1O [Stachyose, O-alpha-D-galactopyranosyl-(1-6)-O-alpha-D-galactopyranosyl-(1-6)-O-alpha-D-glucopyranosyl-(1-2)-beta-D-fructofuranoside]
Km [2]: 4.5 mM
inhibition by excess stachyose (free galactose release, in words) [3]: negligible; also recorded: does not decrease

— patent US7514254B2, “Plant-derived alkaline alpha-galactosidase” (The State of Israel, Ministry of Agriculture & Rural …, priority 1998, dated 2009)
